From article PMC8507260, “A2E-induced inflammation and angiogenesis in RPE cells in vitro are modulated by PPAR-α, -β/δ, -γ, and RXR antagonists and by norbixin” (Aging (Albany NY), 2021) come the findings set out here.

Experiment [1] deals with ERK. Description: ERK phosphorylation by western blot in primary porcine RPE cells. In kind it is cell-based. As to the method:
(§1) Pig eyes were obtained from a local slaughterhouse and transported to the laboratory in ice-cold Ringer solution. After removal of the anterior segment of the eye, the vitreous and neural retina was separated from the RPE and removed. The eyecup was washed twice with phosphate buffer saline (PBS), filled with trypsin (0.25% in PBS) and incubated at 37°C for 1.5 h. RPE cells were harvested by gently pipetting, centrifuged to remove trypsin and re-suspended in Dulbecco’s Modified Eagle Medium (DMEM) supplemented with 20% (v/v) foetal-calf serum (DMEM20%FCS) and 0.1% gentamycin. Cells were seeded into 60 mm diameter Petri dishes, cultured in an atmosphere of 5% CO2/95% air at 37°C, and supplied with fresh medium after 24 hours and 4 days in vitro. For experiments aimed at measuring mRNA or protein expression in RPE, cells were trypsinized after one week in culture and transferred to 24-well or 6-well plates at a density of 1.5 × 10^5 cells/cm^2 in DMEM2%FCS. […]
RPE samples were lysed in 20 mM Tris-HCl, 150 mM NaCl, 1 mM EDTA, 1% NP-40, pH 7.5 buffer containing a cocktail of protease and phosphatase inhibitors. […] The signal was developed using enhanced chemiluminescence reagents (ECL) prime detection kit, quantified by densitometry using Bio1D (Vilber Lourmat, Germany) and normalized by GAPDH levels. […]

For experiment [2], the target named is T1, PPAR-α (Homo sapiens, UniProt Q07869).
T1 construct: Eurofins Cerep (contract laboratory that ran the assay)
T1 sequence (Q07869 1-468): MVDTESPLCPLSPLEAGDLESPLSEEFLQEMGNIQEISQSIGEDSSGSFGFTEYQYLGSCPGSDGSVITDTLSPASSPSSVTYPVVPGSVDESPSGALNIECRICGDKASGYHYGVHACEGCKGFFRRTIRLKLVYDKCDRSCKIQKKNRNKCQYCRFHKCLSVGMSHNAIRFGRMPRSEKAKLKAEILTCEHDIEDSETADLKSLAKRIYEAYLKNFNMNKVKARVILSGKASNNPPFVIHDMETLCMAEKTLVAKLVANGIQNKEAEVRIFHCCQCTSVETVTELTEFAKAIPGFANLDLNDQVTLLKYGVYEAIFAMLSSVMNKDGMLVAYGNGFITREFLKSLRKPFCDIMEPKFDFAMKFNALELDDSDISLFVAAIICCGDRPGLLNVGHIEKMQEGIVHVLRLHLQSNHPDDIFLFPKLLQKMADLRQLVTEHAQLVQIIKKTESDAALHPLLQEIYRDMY
Description: Competition binding to PPAR-α against [3H]GW7647 (Eurofins Cerep). Particulars: competition with [3H]GW7647. The source says:
(§2) The binding and activity of norbixin on PPARs remains controversial, thus, firstly, we performed competition experiments in vitro between norbixin and [^3H] GW7647, an agonist of PPAR-α, and [^3H] rosiglitazone, an agonist of PPAR-γ. […] Secondly, we tested whether norbixin could induce the transactivation of PPAR-α, -β/δ or -γ in the context of RPE cells in vitro by co-transfecting porcine RPE cells with a plasmid expressing each of the full-length PPAR isoforms and a plasmid expressing luciferase under the control of the PPAR response element. […] Then, we wanted to determine if norbixin could modulate the transactivation of PPAR isoforms induced by specific agonists.
(§3) Binding studies of A2E and norbixin to RXR-α and PPAR-α and γ were performed in vitro by an external laboratory (Eurofins Cerep, Celle L’Evescault, France) through competition experiments between A2E or norbixin and [^3H]9-cis-retinoic acid as the natural ligand of RXR-α, [^3H]GW7647 an agonist of PPAR-α and [^3H]Rosiglitazone an agonist of PPAR-γ.

Experiment [3] has as its target T2, PPAR-γ (Homo sapiens, UniProt P37231).
T2 sequence (P37231 1-505): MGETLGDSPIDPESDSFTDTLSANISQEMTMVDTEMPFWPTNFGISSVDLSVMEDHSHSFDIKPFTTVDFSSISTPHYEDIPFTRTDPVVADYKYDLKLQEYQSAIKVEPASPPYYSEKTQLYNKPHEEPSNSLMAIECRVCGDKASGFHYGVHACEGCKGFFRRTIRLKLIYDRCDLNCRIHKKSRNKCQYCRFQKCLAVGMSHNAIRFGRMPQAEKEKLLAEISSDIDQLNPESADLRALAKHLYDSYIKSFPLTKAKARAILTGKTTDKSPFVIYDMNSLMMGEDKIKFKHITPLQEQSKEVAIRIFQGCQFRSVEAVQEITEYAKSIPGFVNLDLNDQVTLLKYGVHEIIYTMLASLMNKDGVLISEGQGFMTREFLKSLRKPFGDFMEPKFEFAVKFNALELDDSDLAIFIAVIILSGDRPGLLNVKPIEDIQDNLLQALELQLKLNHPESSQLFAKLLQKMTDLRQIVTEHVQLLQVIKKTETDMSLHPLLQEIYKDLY
Description: Competition binding to PPAR-γ against [3H]rosiglitazone (Eurofins Cerep). Particulars: competition with [3H]rosiglitazone. The arrangement: Eurofins Cerep (contract laboratory that ran the assay).
Excerpt: as §2, §3

Experiment [4] concerns IL-18. The experiment is described as follows: IL-18 mRNA expression by quantitative RT-PCR in porcine RPE cells. In kind it is cell-based. As to the method: as §1, with “DMEM2%FCS. Norbixin or agonists were added to the medium 24 h after seeding, and antagonists were added to the medium 24 h later. A2E treatment was performed during 19 h before cellular sample preparation.” for “DMEM2%FCS.”
Total RNA was extracted using the NucleoSpin® RNA kit according to manufacturer’s instructions. […] The relative mRNA expression was calculated using the comparative threshold method (Ct-method) with GAPDH for normalization. […]

Consider `CC(/C=C/C=C(C)/C=C/C(=O)O)=C\C=C\C=C(C)\C=C\C=C(C)\C=C\C(=O)O` (stereo in doubt) [norbixin, 9’-cis-norbixin], for which the “effect on ERK phosphorylation induced by A2E” value in experiment [1] (NBX 20 μM + A2E 30 μM) is reported as “not significantly inhibited”. In experiment [2], the half-inhibitory concentration (IC50) is 16.5 µM and the Kd was found to be 15 µM. In experiment [3], this compound displayed an IC50 of 1.9 µM and a Kd of 1 µM. Further, in experiment [4] (NBX 20 μM + A2E 30 μM, PPAR antagonists), the “effect on IL-18 expression induced by A2E” value is listed as “not inhibited”.

As for `CC(C=CC1=C(C)CCCC1(C)C)=CC=CC(C)=Cc1cc(C=CC=C(C)C=CC2=C(C)CCCC2(C)C)cc[n+]1CCO` [A2E, N-retinylidene-N-retinylethanolamine], the “effect of the compound alone on ERK phosphorylation” value in experiment [1] (A2E 30 μM vs DMSO control) is on record as “induced the phosphorylation”. In experiment [2], this compound showed an IC50 of 42.7 µM and a Kd of 41 µM. In experiment [3], this compound came in with a half-maximal inhibitory concentration (IC50) of 25.5 µM and a Kd of 14 µM. Also, the “effect of the compound alone on IL-18 mRNA expression” value in experiment [4] (A2E 30 μM vs DMSO control) was “induced by A2E”.
